This is an account of results in patent US20150274639A1, “METHODS OF USE FOR COMPOSITIONS COMPRISING A BIOCIDAL POLYAMINE” (Curza Global, LLC, priority 2013, published 2015).

Molecules are shown by their SMILES. Converted amounts (≈) assume the structure as drawn.

In assay [1] the test system is MRSA. Kind of assay: MIC against MRSA as defined by CLSI (FIG. 25 series). The format is cell-based, methicillin-resistant Staphylococcus aureus. Particulars: Staphylococcus aureus. Here is the method:
To determine the MIC of the polyamine chains alone and the synthesized compounds against MRSA and P. aeruginosa ATCC 27853, a modified protocol from the Clinical and Laboratory Standards Institute (CLSI) guideline M26-A was used. […] All data was collected using cation adjusted MHB for standardization.
As mentioned, MRSA and P. aeruginosa ATCC 27853 were grown on Columbia blood agar plates prior to experimentation. From the blood agar plates, a 0.5 McFarland standard was made of each isolate. This equated to approximately 5×10^7 cells/mL for the MRSA isolate and approximately 3×10^7 cells/mL for the P. aeruginosa ATCC 27853 isolate. Of the 0.5 McFarland stock solution, 50 μL were added to MHB. […] All tests were performed such that a final volume of 5 mL of MHB were obtained. This provided a final bacterial concentration of approximately 5×10^5 cells/mL.
Each sample was incubated in glass test tubes at 37° C. for 24 hours, then plated in duplicate on tryptic soy agar (TSA) using a 10-fold dilution series. TSA plates were further incubated 24 hours at 37° C. The number of colony forming units (CFU) that grew were counted in order to calculate the number of bacteria that were present per mL in the original MHB solution.

For assay [2], the system named is P. aeruginosa biofilm. In words: MBEC, MBEC Inoculation Tray by Innovotech (to 10^2 CFU/peg in 24 hours). The assay is classed as cell-based. Particulars: Pseudomonas aeruginosa; Table 3A titled MICs; group head missing, values match MBEC; read-out: MIC, P. aeruginosa (second P. aeruginosa). The text has this: To determine the MBEC of each polyamine compound, the MBEC Inoculation Tray by Innovotech, formerly known as the Calgary biofilm device, was used. Within this device, biofilms grow on the surface of polystyrene pegs, 96 of which are attached to a lid. These pegs are inserted into a flat bottom 96-well plate. In this instance, the MBEC of a molecule was defined as the concentration of compound (in μg/mL) required to reduce 10^5 or 10^6 CFU/peg (biofilm levels varied by isolate) to 10^2 CFU/peg in a 24-hour period.
Following the manufacturer's guidelines, biofilms were grown on the surface of each peg by first making a 0.5 McFarland of each isolate. The 0.5 McFarland was diluted 1:100 in CAMHB. Into each well of a flat bottom 96-well plate, 150 μL of broth were pipetted. The plate was shaken at 100 rpm for 24 hours (P. aeruginosa and A. baumannii) or 48 hours (MRSA). The pegs were then placed into a separate flat bottom 96-well plate for 10 seconds with 200 μL of phosphate buffered saline (PBS) in each well to remove nonadherent cells. The lid was then placed into a 96-well plate that contained varying concentrations of antimicrobial with 200 μL per well. The plate was incubated for 24 hours at 37° C. after which time 100 μL of broth were plated on TSA. TSA plates were incubated 24 hours at 37° C. and the number of CFU counted to calculate the CFU/peg. […]

The test system of assay [3] is P. aeruginosa biofilm. Kind of assay: EBEC, high number biofilms on PEEK membranes (10^9 to 10^2 CFU/PEEK membrane in 24 hours). The assay is classed as cell-based. Particulars: Pseudomonas aeruginosa; Table 3B titled MICs; group head missing, values match EBEC. Here is the method: In addition to determining the MIC and the MBEC of polyamine compounds against planktonic bacteria and low number biofilms, our group wanted to determine the efficacy of polyamine compounds against high number biofilms. To do so, biofilms were grown on the surface of polyetheretherketone (PEEK) membranes using a membrane biofilm reactor. This reactor is similar to the CDC biofilm reactor, but rather than growing biofilms on coupon surfaces, the reactor was modified to hold PEEK membranes. In short, to grow biofilms within this system, 500 mL of brain heart infusion (BHI) broth were inoculated with 1 mL of a 0.5 McFarland. The reactor was placed on a hot plate set at 34° C. and the bacteria were grown under batch conditions for 24 hours. Following this protocol, biofilms typically grow to 10^9 CFU/PEEK membrane. […] A solution of 10% BHI was then flowed through the reactor at a rate of 6.94 mL/min for an additional 24 hours. PEEK membranes were then removed and placed into 2 mL of CAMHB that contained a desired concentration of polyamine compound or antibiotic. The EBEC was defined as the concentration of antimicrobial required to reduce a biofilm from approximately 10^9 CFU/PEEK membrane to approximately 10^2 CFU/PEEK membrane in a 24-hour period.

Assay [4] has as its system MRSA biofilm. The assay is described as above. The assay is classed as cell-based, methicillin-resistant Staphylococcus aureus. Particulars: Staphylococcus aureus, Table 3B titled MICs, group head missing, values match EBEC.

For `NCCCNCCCNCc1cccc(CNCCCNCCCN)c1` [CZ-25], the MIC in assay [1] was 45 µg/mL (≈ 123 µM); in assay [2] it was over 500 µg/mL; in assay [3], over 5000 µg/mL; in assay [4], over 5000 µg/mL.
For the compound `NCCCNCCCNCc1cc(CNCCCNCCCN)cc(CNCCCNCCCN)c1` [CZ-52], the MIC in assay [1] was 3 µg/mL (≈ 5.91 µM); in assay [2], 400 µg/mL (≈ 788 µM); in assay [3], over 5000 µg/mL; in assay [4], 250 µg/mL (≈ 492 µM).
